Laboratory results taken from patent US10544141B2, “Derivatives and methods of treating hepatitis B infections” (Novira Therapeutics, Inc., priority 2014, dated 2020).

Tested on: HBV
Assay: HBV replication inhibition assay (BDNA assay) in HepG2.2.15 cells
Assay type: cell-based
Settings: 6 days treatment, encapsidated HBV DNA in supernatant by branched DNA QuantiGene assay
Excerpt: HBV replication inhibition by the compounds of this invention could be determined in cells infected or transfected with HBV, or cells with stably integrated HBV, such as HepG2.2.15 cells (Sells et al. 1987). In this example, HepG2.2.15 cells were maintained in cell culture medium containing 10% fetal bovine serum (FBS), Geneticin, L-glutamine, penicillin and streptomycin. HepG2.2.15 cells could be seeded in 96-well plates at a density of 40,000 cells/well and be treated with serially diluted compounds at a final DMSO concentration of 0.5% either alone or in combination by adding drugs in a checker box format. Cells were incubated with compounds for three days, after which medium was removed and fresh medium containing compounds was added to cells and incubated for another three days. At day 6, supernatant was removed and treated with DNase at 37° C. for 60 minutes, followed by enzyme inactivation at 75° C. for 15 minutes. Encapsidated HBV DNA was released from the virions and covalently linked HBV polymerase by incubating in lysis buffer (Affymetrix QS0010) containing 2.5 μg proteinase K at 50° C. for 40 minutes. HBV DNA was denatured by addition of 0.2 M NaOH and detected using a branched DNA (BDNA) QuantiGene assay kit according to manufacturer recommendation (Affymetrix). HBV DNA levels could also be quantified using qPCR, based on amplification of encapsidated HBV DNA extraction with QuickExtraction Solution (Epicentre Biotechnologies) and amplification of HBV DNA using HBV specific PCR probes that can hybridize to HBV DNA and a fluorescently labeled probe for quantitation. In addition, cell viability of HepG2.2.15 cells incubated with test compounds alone or in combination was determined by using CellTitre-Glo reagent according to the manufacturer protocol (Promega). The mean background signal from wells containing only culture medium was subtracted from all other samples, and percent inhibition at each compound concentration was calculated by normalizing to signals from HepG2.2.15 cells treated with 0.5% DMSO using equation E1. % inhibition=(DMSOave−Xi)/DMSOave×100% E1: where DMSOave is the mean signal calculated from the wells that were treated with DMSO control (0% inhibition control) and Xi is the signal measured from the individual wells. EC50 values, effective concentrations that achieved 50% inhibitory effect, were determined by non-linear fitting using Graphpad Prism software (San Diego, Calif.) and equation E2 Y=Y min+(Y max−Y min)/(1+10(Log EC50−X)×HillSlope) E2: […]
where Y represents percent inhibition values and X represents the logarithm of compound concentrations.
Selected compounds of the invention were assayed in the HBV replication assay (BDNA assay), as described above and a representative group of these active compounds is shown in Table 3. […] In Table 3, “A” represents 0.01<EC50<0.10; “B” represents 0.10≤EC50<0.50; and “C” represents 0.50≤EC50<1.0; (‘+’ indicates >50% activity at 10 μM).

[1] = Hepatitis B virus, HepG2.2.15, 144 h

Structure (SMILES) | EC50 [1] [nM] | other results
CCCc1n[nH]c2c1CN(C(=O)Nc1cccc(Cl)c1)CC2 [Compound 644, N-(3-chlorophenyl)-3-propyl-1,4,6,7-tetrahydropyrazolo[4,3-c]pyridine-5-carboxamide] | 100 to 500 | –
O=C(Nc1ccc(F)c(Cl)c1)N1CCc2[nH]nc(C3CCC3)c2C1 [Compound 665] | 10 to 100 | –
O=C(Nc1ccc(F)c(Br)c1)N1CCc2[nH]nc(C3CCC3)c2C1 [Compound 667] | 10 to 100 | –
C[C@@H]1Cc2[nH]nc(C3CCCC3)c2CN1C(=O)Nc1cccc(Br)c1 [927 R] | 10 to 100 | –
O=C(Nc1cccc(Cl)c1)N1CCc2[nH]nc(C3CCC3)c2C1 [Compound 554, N-(3-chlorophenyl)-3-cyclobutyl-1,4,6,7-tetrahydropyrazolo[4,3-c]pyridine-5-carboxamide] | 10 to 100 | –
C[C@@H]1Cc2[nH]nc(C3CCCC3)c2CN1C(=O)Nc1ccc(F)c(Br)c1 [928 R] | 10 to 100 | –
CC1(c2n[nH]c3c2CN(C(=O)Nc2cccc(Cl)c2)CC3)CC1 [Compound 441] | 100 to 500 | –
Cc1cccc(NC(=O)N2Cc3c(C4CCCO4)n[nH]c3C[C@@H]2C)c1 (single isomer, unassigned) [970 D1] | 100 to 500 | –
O=C(Nc1cccc(Cl)c1)N1CCc2[nH]nc(C3CCOCC3)c2C1 [Compound 275] | 100 to 500 | –
C[C@H]1Cc2[nH]nc(C3CCCO3)c2CN1C(=O)Nc1ccc(F)c(Br)c1 (single isomer, unassigned) [967 D1] | – | EC50: 10 to 100 nM
O=C(Nc1ccc(F)c(Cl)c1)N1CCc2[nH]nc(C34CCCC3C4)c2C1 (centres unmarked) [Compound 787] | 10 to 100 | –
CCC(C)(C)c1n[nH]c2c1CN(C(=O)Nc1cccc(Cl)c1)CC2 [Compound 604, N-(3-chlorophenyl)-3-(1,1-dimethylpropyl)-1,4,6,7-tetrahydropyrazolo [4,3-c]pyridine-5-carboxamide] | 100 to 500 | –
C[C@H]1Cc2[nH]nc(C3CCCO3)c2CN1C(=O)Nc1ccc(F)c(Br)c1 (single isomer, unassigned) [967 D2] | – | EC50: 100 to 500 nM
O=C(Nc1cccc(Cl)c1)N1CCc2[nH]nc(C34CCCC3C4)c2C1 (centres unmarked) [Compound 546, 3-(1-bicyclo[3.1.0]hexanyl)-N-(3-chlorophenyl)-1,4,6,7-tetrahydropyrazolo[4,3-c]pyridine-5-carboxamide] | 10 to 100 | –
Cc1cccc(NC(=O)N2CCc3[nH]nc(C4CCC4)c3C2)c1 [Compound 661] | 100 to 500 | –
C[C@H]1Cc2[nH]nc(C3CCCC3)c2CN1C(=O)Nc1ccc(F)c(Br)c1 [928 S] | 10 to 100 | –
C[C@H]1Cc2[nH]nc(C3CCCO3)c2CN1C(=O)Nc1ccc(F)c(C#N)c1 (some centres unmarked) [969 D2] | 100 to 500 | –
O=C(Nc1cccc(Cl)c1)N1CCc2[nH]nc(C3CCC(O)C3)c2C1 (centres unmarked) [Compound 742, N-(3-chlorophenyl)-3-(3-hydroxycyclopentyl)-1,4,6,7-tetrahydropyrazolo[4,3-c] pyridine-5-carboxamide] | 100 to 500 | –
O=C(Nc1cccc(Cl)c1)N1CCc2[nH]nc(C3=CCCC3)c2C1 [Compound 338, N-(3-chlorophenyl)-3-(cyclopenten-1-yl)-1,4,6,7-tetrahydropyrazolo[4,3-c]pyridine-5-carboxamide] | 10 to 100 | –
O=C(Nc1cccc(Cl)c1)N1CCc2[nH]nc(C3CC3)c2C1 [Compound 440, N-(3-chlorophenyl)-3-cyclopropyl-1,4,6,7-tetrahydropyrazolo[4,3-c]pyridine-5-carboxamide] | 100 to 500 | –
C[C@@H]1Cc2[nH]nc(C3CCCC3)c2CN1C(=O)Nc1ccc(F)c(Cl)c1 [932 R] | 10 to 100 | –
C[C@H]1Cc2[nH]nc(C3CCCO3)c2CN1C(=O)Nc1cccc(Br)c1 (single isomer, unassigned) [966 D1] | 10 to 100 | –
O=C(Nc1cccc(Cl)c1)N1CCc2[nH]nc(C3CCCO3)c2C1 (centres unmarked) [Compound 861, N-(3-chlorophenyl)-3-tetrahydrofuran-2-yl-1,4,6,7-tetrahydropyrazolo[4,3-c]pyridine-5-carboxamide] | 10 to 100 | –
O=C(Nc1ccc(F)c(F)c1)N1CCc2[nH]nc(C3CCC3)c2C1 [Compound 669] | 100 to 500 | –
O=C(Nc1ccc(F)c(Br)c1)N1CCc2[nH]nc(C34CCCC3C4)c2C1 (centres unmarked) [Compound 789] | 10 to 100 | –

Structure (SMILES) | EC50 [1] [nM] | other results
Cc1cccc(NC(=O)N2CCc3[nH]nc(C45CCCC4C5)c3C2)c1 (centres unmarked) [Compound 783] | 10 to 100 | –
Cc1cc(NC(=O)N2Cc3c(C4CCCC4)n[nH]c3C[C@@H]2C)ccc1F [931 S] | 10 to 100 | –
C[C@H]1Cc2[nH]nc(C3CCCO3)c2CN1C(=O)Nc1ccc(F)c(C#N)c1 (single isomer, unassigned) [969 D1] | 100 to 500 | –
O=C(Nc1cccc(Cl)c1)N1CCc2[nH]nc(Br)c2C1 [Compound 260] | – | HBV replication inhibition >50% at 10 μM (qualitative flag): + (‘+’ indicates >50% activity at 10 μM)
C=C(C)c1n[nH]c2c1CN(C(=O)Nc1cccc(C)c1)CC2 [Compound 549, 3-isopropenyl-N-(m-tolyl)-1,4,6,7-tetrahydropyrazolo[4,3-c]pyridine-5-carboxamide] | 100 to 500 | –
CC1Cc2[nH]nc(C3CCC3)c2CN1C(=O)Nc1cccc(C#N)c1F (centres unmarked) [761 R] | 100 to 500 | –
Cc1cc(NC(=O)N2CCc3[nH]nc(C4CCC4)c3C2)ccc1F [Compound 666] | 10 to 100 | –
O=C(Nc1ccc(F)c(F)c1)N1CCc2[nH]nc(C34CCCC3C4)c2C1 (centres unmarked) [Compound 792] | 100 to 500 | –
O=C(Nc1cccc(Cl)c1)N1CCc2[nH]nc(N3CCCC3)c2C1 [Compound 455, N-(3-chlorophenyl)-3-pyrrolidin-1-yl-1,4,6,7-tetrahydropyrazolo[4,3-c] pyridine-5-carboxamide] | 100 to 500 | –
O=C(Nc1cccc(Cl)c1)N1CCc2[nH]nc(C3=CCCCC3)c2C1 [Compound 337, N-(3-chlorophenyl)-3-(cyclohexen-1-yl)-1,4,6,7-tetrahydro pyrazolo[4,3-c]pyridine-5-carboxamide] | 10 to 100 | –
CCC(F)(F)c1n[nH]c2c1CN(C(=O)Nc1cccc(Cl)c1)CC2 [Compound 696, N-(3-chlorophenyl)-3-(1,1-difluoropropyl)-1,4,6,7-tetra hydropyrazolo[4,3-c]pyridine-5-carboxamide] | 100 to 500 | –
C[C@H]1Cc2[nH]nc(C3CCCC3)c2CN1C(=O)Nc1ccnc(Br)c1F [929 S] | 10 to 100 | –
C=C(C)c1n[nH]c2c1CN(C(=O)Nc1cccc(Cl)c1)CC2 [Compound 336] | 10 to 100 | –
C[C@@H]1Cc2[nH]nc(C3CCCC3)c2CN1C(=O)Nc1ccc(F)c(C#N)c1 [930 R] | 10 to 100 | –
N#Cc1cccc(NC(=O)N2CCc3[nH]nc(C45CCCC4C5)c3C2)c1F (centres unmarked) [Compound 786] | 10 to 100 | –
C[C@H]1Cc2[nH]nc(C3CCCO3)c2CN1C(=O)Nc1cccc(Cl)c1 (single isomer, unassigned) [964 D1] | 10 to 100 | –
C[C@H]1Cc2[nH]nc(C3CCCO3)c2CN1C(=O)Nc1ccc(F)c(Cl)c1 (single isomer, unassigned) [965 D1] | 10 to 100 | –
N#Cc1cc(NC(=O)N2CCc3[nH]nc(C4CCC4)c3C2)ccc1F [Compound 668] | 10 to 100 | –
N#Cc1cc(NC(=O)N2CCc3[nH]nc(C45CCCC4C5)c3C2)ccc1F (centres unmarked) [Compound 790] | 10 to 100 | –
Cc1cc(NC(=O)N2Cc3c(C4CCCO4)n[nH]c3C[C@@H]2C)ccc1F (single isomer, unassigned) [971 D1] | 10 to 100 | –
CC(C)(C)c1n[nH]c2c1CN(C(=O)Nc1cccc(Cl)c1)CC2 [Compound 515, 3-tert-butyl-N-(3-chlorophenyl)-1,4,6,7-tetrahydropyrazolo[4,3-c]pyridine-5-carboxamide] | 100 to 500 | –
Cc1cccc(NC(=O)N2Cc3c(C4CCCC4)n[nH]c3C[C@@H]2C)c1 [933 S] | 10 to 100 | –
O=C(Nc1cccc(Br)c1F)N1CCc2[nH]nc(C3CCC3)c2C1 [Compound 662] | 10 to 100 | –
CC1(c2n[nH]c3c2CN(C(=O)Nc2cccc(Cl)c2)CC3)CCC1 [Compound 694, N-(3-chlorophenyl)-3-(1-methylcyclobutyl)-1,4,6,7-tetrahydropyrazolo[4,3-c]pyridine-5-carboxamide] | 10 to 100 | –
O=C(Nc1cccc(Br)c1F)N1CCc2[nH]nc(C34CCCC3C4)c2C1 (centres unmarked) [Compound 784] | 10 to 100 | –
